According to patent US20090291964A1, “Potentiators of Antibacterial Activity” (priority 2003, published 2009):
Read-outs that look alike come from different tables or passages of the source. Marks after values point to notes of the source that are not given here.

Assays:
Type in all cases: cell-based
[1] = test system: S. aureus ATCC 29213; experiment: MIC by NCCLS microdilution, antibacterial agents with and without EPI; settings: for MIC: Staphylococcus aureus; for Fold-reduction in MIC: gatifloxacin
Method in brief: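 Efflux pump inhibitors were combined at fixed concentrations with antibiotics from several classes and tested against Staphylococcus aureus ATCC 29213 to compare minimum inhibitory concentrations with and without inhibitor. The inhibitor level was tied to its minimal effective concentration for ethidium bromide, a general efflux pump substrate. All assays contained a final concentration of 1% DMSO.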

[2] = test system: S. aureus ATCC 29213; experiment: Minimal effective concentration (MEC) of EPI for gatifloxacin; settings: lowest amount of EPI which produces the maximum effect on the MIC of gatifloxacin
Protocol: (§1) The MEC was determined as the minimal concentration of EPI that produced the maximal reduction in substrate MIC.
(§2) Since any given compound may be recognized by an unknown number of efflux pumps in a particular organism, we reasoned that the MEC of A-106 and C-9 should vary for different antibiotics. Also, the MEC of A-106 and C-9 should vary with the degree of efflux expression in a given strain. […] This was confirmed with two other wild type strains, SA-8325-4 and SA-1199 (Table 3).

[3] = test system: S. aureus ATCC 29213; experiment: Minimal effective concentration (MEC) of EPI for EtBr; settings: S. aureus ATCC 29213; lowest amount of EPI which produces the maximum effect on the MIC of ethidium bromide
Protocol: as §1
(§3) The minimum effective concentration (MEC) for inhibition of EtBr efflux was determined in S. aureus, E. faecalis and S. pneumoniae for A-106 and C-9; reserpine was used as a comparator (Table 1).

[4] = test system: E. faecalis ATCC 29212; experiment: as above; settings: lowest amount of EPI which produces the maximum effect on the MIC of ethidium bromide
Protocol: as §1, §3

[5] = test system: S. pneumoniae ATCC 10015; experiment: as above; settings: lowest amount of EPI which produces the maximum effect on the MIC of ethidium bromide (reserpine: maximal subinhibitory concentration)
Protocol: as §1, §3

[6] = test system: S. aureus SA-8325-4; experiment: MIC of fluoroquinolones with and without EPI; settings: for MIC: Staphylococcus aureus
Source text: (§4) A variety of strains may be used in these experiments, including, but not limited to, S. aureus ATCC 29213, E. faecalis ATCC 29212, and S. pneumoniae, S. aureus strains SA-1199, SA-1199B, SA-8325-4, and SA-K2068. S. aureus ATCC 29213, E. faecalis ATCC 29212, and S. pneumoniae ATCC 10015 were obtained from the American Type Culture Collection (Manassas, Va.). S. aureus strains SA-1199 (clinical isolate, susceptible), SA-1199B (SA-1199, NorA overproducing, also has A116E GrlA mutation), SA-8325-4 (NCTC 8325 cured of prophages), SA-K2068 (SA-8325-4, non-NorA multidrug efflux pump overproducing mutation) were obtained from Glenn Kaatz (Kaatz et al., “Identification and characterization of a novel efflux-related multidrug resistance phenotype in Staphylococcus aureus”, J. Antimicrob. Chemother. 50:833-838 (2002); 1993; Kaatz et al., “Phenothiazines and thioxanthenes inhibit multidrug efflux pump activity in Staphylococcus aureus”, Antimicrob. Agents Chemother. 47:719-726, Kaatz et al., “Efflux-mediated fluoroquinolone resistance in Staphylococcus aureus. Antimicrob. Agents Chemother.”, 37:1086-1094, 1993)).
(§5) 3% sterile laked horse blood (Quad Five, Ryegate, Mont.) was added to assays for E. faecalis and S. Pneumoniae. A final concentration of 1% DMSO was present in all assays.

[7] = test system: S. aureus SA-1199 (clinical isolate, susceptible); experiment: MIC of fluoroquinolones with and without EPI; settings: for MIC: Staphylococcus aureus, read-out: MIC of EtBr with EPI
Source text: as §4, §5

[8] = test system: S. aureus SA-1199B (NorA overproducing); experiment: MIC of fluoroquinolones with and without EPI; settings: for MIC: Staphylococcus aureus, read-out: MIC of EtBr with EPI; for Fold-reduction in MIC: gatifloxacin, S. aureus SA-1199B (NorA overproducer)
Source text: as §4, §5
Recent more hydrophobic fluoroquinolones such as gatifloxacin and moxifloxacin are less well recognized by NorA; however, recently one other pump in S. aureus has been described which also recognizes hydrophobic fluoroquinolones (Kaatz et al. 2002, supra). To investigate the potential of A-106 and C-9 to block the efflux of several fluoroquinolones in cells with constituitively over-expressed efflux pumps, we used S. aureus strains SA-1199B and K2068 (Table 3). […] Kaatz et al., “Phenothiazines and thioxanthenes inhibit multidrug efflux pump activity in Staphylococcus aureus”, Antimicrob. Agents Chemother. 47:719-726 (2003).

[9] = test system: S. aureus SA-1199B; experiment: Minimal effective concentration (MEC) of EPI for gatifloxacin; settings: for MEC: S. aureus SA-1199B (NorA overproducer), lowest amount of EPI which produces the maximum effect on the MIC of gatifloxacin
Protocol: as §1, §2
(§6) The MEC of A-106 and C-9 for gatifloxacin was determined in these efflux mutants. […] A similar result was obtained with efflux mutant K2068, where the MEC for A-106 was 6.25 μg/ml and the MEC for C-9 was 3.1 μg/ml. […] This may reflect that either gatifloxacin is recognized by fewer pumps than EtBr or it is a poorer efflux substrate in general. This is consistent with the finding that the activity of A-106 was non-saturable for EtBr but is saturable for gatifloxacin.

[10] = test system: S. aureus K2068; experiment: as above; settings: for MEC: S. aureus K2068 (nonNorA pump overproducer), lowest amount of EPI which produces the maximum effect on the MIC of gatifloxacin
Protocol: as §1, §2, §6

[11] = S. aureus ATCC 29213, EPI at 4X the MEC for EtBr, VX-710 at 100 μg/ml
[12] = S. aureus ATCC 29213, EPIs used at the MEC, except VX-710 at 100 μg/ml
[13] = S. aureus SA-8325-4, EPI at 4X the MEC for EtBr, VX-710 at 100 μg/ml
[14] = S. aureus SA-1199, EPI at 4X the MEC for EtBr, VX-710 at 100 μg/ml
[15] = S. aureus SA-1199B (NorA overproducer) (Table 4)
[16] = S. aureus SA-1199B, EPI at 4X the MEC for EtBr, VX-710 at 100 μg/ml
[17] = SA-1199B, EPIs at 4 times MEC for EtBr, A-106 at 100 μg/ml

COc1cc(C(=O)C(=O)N(C)[C@@H](Cc2ccc(Cl)cc2)C(=O)N(Cc2ccccc2)C(CCc2ccncc2)CCc2ccncc2)cc(OC)c1OC [C-9, (S)—N-Benzyl-2-(methyl-(2-oxo-2-(3,4,5-trimethoxyphenyl)acetyl)amino)-3-(4-chloro-phenyl)-N-(3-pyridin-4-yl-1-(2-pyridin-4-yl-ethyl)propyl)propionamide]
MIC of gatifloxacin with EPI ([1]; S. aureus ATCC 29213 (Table 4)): 0.125 µg/mL
MIC of ciprofloxacin with EPI [1, 11]: 0.125 µg/mL
MIC of gatifloxacin with EPI [1, 11]: 0.063 µg/mL
MIC of gentamicin with EPI [1, 11]: 0.125 µg/mL
MIC of levofloxacin with EPI [1, 11]: 0.125 µg/mL
MIC of norfloxacin with EPI [1, 11]: 0.5 µg/mL
Fold-reduction in EtBr MIC [1, 12]: 4
reduction of the MIC of EtBr ([1]; S. aureus wild type, EPI up to 100 μg/ml, data not shown): 30 fold
MIC ([1]; ATCC29213, read-out: MIC of EPI, S. aureus ATCC 29213, EPI alone): > 100 µg/mL
MIC ([1]; ATCC29213, read-out: MIC of EtBr with EPI, S. aureus ATCC 29213, EPI at 4X the MEC for EtBr, VX-710 at 100 μg/ml): 0.8 µg/mL
MIC ([1]; ATCC29213, read-out: MIC of EtBr with EPI, S. aureus ATCC 29213, EPIs used at the MEC, except VX-710 at 100 μg/ml): 1.6 µg/mL
Fold-reduction in MIC ([1]; S. aureus ATCC 29213): 1
effect of EPI on the MIC of gatifloxacin ([1]; wild type strain ATCC 29213): unaffected
MEC [2]: >100 µg/mL
MEC of EPI [3]: 1.6 µg/mL
MEC of EPI [4]: 6.3 µg/mL
MEC of EPI [5]: 12.5 µg/mL
MIC of ciprofloxacin with EPI [6, 13]: 0.125 µg/mL
MIC of gatifloxacin with EPI [6, 13]: 0.125 µg/mL
MIC of gentamicin with EPI [6, 13]: 0.063 µg/mL
MIC of levofloxacin with EPI [6, 13]: 0.25 µg/mL
MIC of norfloxacin with EPI [6, 13]: 0.25 µg/mL
MIC ([6]; SA83254, read-out: MIC of EtBr with EPI): 0.8 µg/mL
MIC of ciprofloxacin with EPI [7, 14]: 0.125 µg/mL
MIC of gatifloxacin with EPI [7, 14]: 0.063 µg/mL
MIC of gentamicin with EPI [7, 14]: 0.125 µg/mL
MIC of levofloxacin with EPI [7, 14]: 0.125 µg/mL
MIC of norfloxacin with EPI [7, 14]: 0.25 µg/mL
MIC [7]: 1.6 µg/mL
MIC of gatifloxacin with EPI [8, 15]: 0.25 µg/mL
MIC of ciprofloxacin with EPI [8, 16]: 2 µg/mL
MIC of gatifloxacin with EPI [8, 16]: 0.25 µg/mL
MIC of gentamicin with EPI [8, 16]: 0.125 µg/mL
MIC of levofloxacin with EPI [8, 16]: 1 µg/mL
MIC of norfloxacin with EPI [8, 16]: 8 µg/mL
reduction of MIC of ciprofloxacin [8, 17]: 8 fold
reduction of MIC of gatifloxacin [8, 17]: 4 fold
reduction of MIC of levofloxacin [8, 17]: 2 fold
reduction of MIC of norfloxacin [8, 17]: 32 fold
MIC [8]: 3.1 µg/mL
Fold-reduction in MIC [8]: 2
MEC [9]: 3.1 µg/mL
MEC for gatifloxacin ([9]; efflux mutant, strain not named in the sentence (SA-1199B by context)): 3.1 µg/mL
MEC [10]: 3.1 µg/mL
MEC for gatifloxacin ([10]; efflux mutant K2068): 3.1 µg/mL

COC(=O)[C@H]1[C@H]2C[C@@H]3c4[nH]c5cc(OC)ccc5c4CCN3C[C@H]2C[C@@H](OC(=O)c2cc(OC)c(OC)c(OC)c2)[C@@H]1OC [reserpine, reference compound]
MIC of gatifloxacin with EPI ([1]; S. aureus ATCC 29213 (Table 4)): 0.125 µg/mL
MIC of ciprofloxacin with EPI [1, 11]: 0.063 µg/mL
MIC of gatifloxacin with EPI [1, 11]: 0.063 µg/mL
MIC of gentamicin with EPI [1, 11]: 0.125 µg/mL
MIC of levofloxacin with EPI [1, 11]: 0.125 µg/mL
MIC of norfloxacin with EPI [1, 11]: 0.25 µg/mL
Fold-reduction in EtBr MIC [1, 12]: 4
MIC ([1]; ATCC29213, S. aureus ATCC 29213, EPI alone, read-out: MIC of EPI): > 100 µg/mL
MIC ([1]; ATCC29213, S. aureus ATCC 29213, EPI at 4X the MEC for EtBr, VX-710 at 100 μg/ml, read-out: MIC of EtBr with EPI): 0.4 µg/mL
MIC ([1]; ATCC29213, S. aureus ATCC 29213, EPIs used at the MEC, except VX-710 at 100 μg/ml, read-out: MIC of EtBr with EPI): 1.6 µg/mL
Fold-reduction in MIC ([1]; S. aureus ATCC 29213): 1
MEC [2]: >100 µg/mL
MEC of EPI [3]: 6.3 µg/mL
MEC of EPI [4]: ≧100 μg/ml
MEC of EPI [5]: 25^c μg/ml
MIC of ciprofloxacin with EPI [6, 13]: 0.125 µg/mL
MIC of gatifloxacin with EPI [6, 13]: 0.125 µg/mL
MIC of gentamicin with EPI [6, 13]: 0.063 µg/mL
MIC of levofloxacin with EPI [6, 13]: 0.25 µg/mL
MIC of norfloxacin with EPI [6, 13]: 0.25 µg/mL
MIC ([6]; SA83254, S. aureus SA-8325-4, EPI at 4X the MEC for EtBr, VX-710 at 100 μg/ml, read-out: MIC of EtBr with EPI): 0.4 µg/mL
MIC of ciprofloxacin with EPI [7, 14]: 0.063 µg/mL
MIC of gatifloxacin with EPI [7, 14]: 0.063 µg/mL
MIC of gentamicin with EPI [7, 14]: 0.125 µg/mL
MIC of levofloxacin with EPI [7, 14]: 0.125 µg/mL
MIC of norfloxacin with EPI [7, 14]: 0.125 µg/mL
MIC [7, 14]: 0.4 µg/mL
MIC of gatifloxacin with EPI [8, 15]: 0.25 µg/mL
MIC of ciprofloxacin with EPI [8, 16]: 0.5 µg/mL
MIC of gatifloxacin with EPI [8, 16]: 0.125 µg/mL
MIC of gentamicin with EPI [8, 16]: 0.125 µg/mL
MIC of levofloxacin with EPI [8, 16]: 0.5 µg/mL
MIC of norfloxacin with EPI [8, 16]: 4 µg/mL
MIC [8]: 0.8 µg/mL
Fold-reduction in MIC [8]: 2
MEC [9]: 25 µg/mL
MEC [10]: 3.1 µg/mL
